# Measurements taken from patent publication US20250115864A1, “A FERMENTATION MEDIUM COMPRISING SULPHUR” (Evonik Operations GmbH, priority 2021, published 2025).
# Legend:
# Assay type in all cases: cell-based
# Clostridium ljungdahlii = assay: Formation of acetic acid and ethanol from synthesis gas with Clostridium ljungdahlii and refeeding of cysteine
# Description: For the biotransformation of hydrogen and carbon dioxide to acetic acid and ethanol the homoacetogenic bacterium Clostridium ljungdahlii was cultivated on synthesis gas with refeeding of cysteine. All cultivation steps were carried out under anaerobic conditions in pressure-resistant glass bottles that can be closed airtight with a butyl rubber stopper.
# The chemolithoautotrophic cultivation was carried out in a 1 L pressure-resistant glass bottle at 37° C., 100 rpm and a ventilation rate of 3 L/h with a premixed gas with 67% H2, 33% CO2 in an open water bath shaker for 69 h till OD600nm>0.4. The gas was discharged into the medium through a sparger with a pore size of 10 μm, which was mounted in the center of the reactors. Then the cell suspension was centrifuged and the cell pellet was resuspended in fresh CGF1 Medium.
# For the production phase, as many washed cells from the preculture of C. ljungdahlii as necessary for an OD600nm of 0.2 were added to 100 ml mineral medium (CGF1 medium, pH 6.5, 1.4 g/L KOH, 2 g/L (NH4)2SO4, 1 g/L KH2PO4, 1 g/L K2HPO4, 10 mg/L FeSO4×7H2O, 3.8 mg/L MnSO4×1H2O, 246 mg/L MgSO4×7H2O, aerated for 30 min with a premixed gas with 67% H2 and 33% CO2). […] The cultivation was carried out in 500 mL pressure-resistant glass bottles at 37° C., 150 rpm in an open water bath shaker for 163 h which were aerated to an overpressure of 0.8 bar with a premixed gas with 67% H2, 33% CO2 one time a day. The pH was hold >5.0 by intermittent additions of a 140 g/L KOH solution. During the cultivation several 5 mL samples were taken to determinate OD600nm, pH und product formation. […] The determination of the product concentrations was performed by semiquantitative 1H-NMR spectroscopy. As an internal quantification standard sodium trimethylsilylpropionate (T (M) SP) was used.
# [1] = test system: Clostridium autoethanogenum together with Clostridium kluyveri in a co-culture; assay: Continuous co-culture of Clostridium autoethanogenum and Clostridium kluyveri with low potassium thioacetate concentration
# Description: (§1) The homoacetogenic bacterium Clostridium autoethanogenum was cultivated together with the chain elongating bacterium Clostridium kluyveri in a co-culture on synthesis gas in a mineral medium with potassium thioacetate as reduced sulfur source. The cultivation was carried out under anaerobic conditions in a pressure-resistant stainless steel bubble column loop reactor.
# (§2) The cultivation was run at 37° C. and an overpressure of 2 bar as a continuous fermentation with continuous feeding of 300 L/h of a mixture of water, substrates, salts, trace elements and vitamins. The pH was automatically hold at 5.80 with ammonia feeding. The outlet stream of 300 L/h out of the fermenter was for 98.2% as permeate with cell retention and for 1.8% as purge without cell retention.
# (§3) The culture was previously inoculated with cells from fresh cultures of C. autoethanogenum and C. kluyveri and was already running since >10.000 h full continuously as stable coculture at an optical density (OD600nm) of ˜ 9.0. Fresh medium was continuously fed into the reactor and fermentation broth continuously removed from the reactor with a dilution rate of 2.8 d^−1. During cultivation several 5 mL samples were taken to determinate OD600nm, PH und product formation. The determination of the product concentrations was performed by semiquantitative 1H-NMR spectroscopy. As an internal quantification standard sodium trimethylsilylpropionate (T (M) SP) was used.
# [2] = test system: Clostridium autoethanogenum together with Clostridium kluyveri in a co-culture; assay: Continuous co-culture of Clostridium autoethanogenum and Clostridium kluyveri with high potassium thioacetate concentration
# Description: as §1, §2
# as §3, with “>13.000” for “>10.000”, “11.8.” for “9.0.”
# [3] = culture C (refed with L-cysteine-hydrochloride) versus cultures A and B, production phase
# [4] = 10.69 mg/L potassium thioacetate in media feed (before decrease)
# [5] = 50 h after decreasing potassium thioacetate in media feed to 10% (1.69 mg/L)
# [6] = 10.69 mg/L potassium thioacetate in media feed (before increase)
# [7] = 50 h, 100 h and 150 h after increasing potassium thioacetate in media feed to 300% (32.07 mg/L)
smiles,measurement,setting,value
"Cl.N[C@@H](CS)C(=O)O [L-cysteine, L-cysteine-hydrochloride]",OD(600 nm),"Clostridium ljungdahlii; culture A, initial 400 mg/L L-cysteine-hydrochloride, no refeed, 0 h",0.206
same,OD(600 nm),"Clostridium ljungdahlii; culture A, initial 400 mg/L L-cysteine-hydrochloride, no refeed, 18.75 h",0.232
same,OD(600 nm),"Clostridium ljungdahlii; culture A, initial 400 mg/L L-cysteine-hydrochloride, no refeed, 41.5 h",0.293
same,OD(600 nm),"Clostridium ljungdahlii; culture A, initial 400 mg/L L-cysteine-hydrochloride, no refeed, 46.75 h",0.281
same,OD(600 nm),"Clostridium ljungdahlii; culture A, initial 400 mg/L L-cysteine-hydrochloride, no refeed, 65.5 h",0.324
same,OD(600 nm),"Clostridium ljungdahlii; culture A, initial 400 mg/L L-cysteine-hydrochloride, no refeed, 69.5 h",0.366
same,OD(600 nm),"Clostridium ljungdahlii; culture A, initial 400 mg/L L-cysteine-hydrochloride, no refeed, 89.75 h",0.324
same,OD(600 nm),"Clostridium ljungdahlii; culture A, initial 400 mg/L L-cysteine-hydrochloride, no refeed, 163.5 h",0.339
same,OD(600 nm),"Clostridium ljungdahlii; culture B, initial 200 mg/L L-cysteine-hydrochloride, no refeed, 0 h",0.197
same,OD(600 nm),"Clostridium ljungdahlii; culture B, initial 200 mg/L L-cysteine-hydrochloride, no refeed, 18.75 h",0.261
same,OD(600 nm),"Clostridium ljungdahlii; culture B, initial 200 mg/L L-cysteine-hydrochloride, no refeed, 41.5 h",0.279
same,OD(600 nm),"Clostridium ljungdahlii; culture B, initial 200 mg/L L-cysteine-hydrochloride, no refeed, 46.75 h",0.269
same,OD(600 nm),"Clostridium ljungdahlii; culture B, initial 200 mg/L L-cysteine-hydrochloride, no refeed, 65.5 h",0.271
same,OD(600 nm),"Clostridium ljungdahlii; culture B, initial 200 mg/L L-cysteine-hydrochloride, no refeed, 69.5 h",0.259
same,OD(600 nm),"Clostridium ljungdahlii; culture B, initial 200 mg/L L-cysteine-hydrochloride, no refeed, 89.75 h",0.241
same,OD(600 nm),"Clostridium ljungdahlii; culture B, initial 200 mg/L L-cysteine-hydrochloride, no refeed, 163.5 h",0.237
same,cell growth,Clostridium ljungdahlii; [3],stronger cell growth than cultures A and B
same,concentrations of acetate and ethanol,Clostridium ljungdahlii; [3],increased more than in culture A and B
same,OD(600 nm),"Clostridium ljungdahlii; culture C, initial 200 mg/L L-cysteine-hydrochloride, refed 200 mg/L after 18, 41, 65, 89 h, 0 h",0.209
same,OD(600 nm),"Clostridium ljungdahlii; culture C, initial 200 mg/L L-cysteine-hydrochloride, refed 200 mg/L after 18, 41, 65, 89 h, 18.75 h",0.245
same,OD(600 nm),"Clostridium ljungdahlii; culture C, initial 200 mg/L L-cysteine-hydrochloride, refed 200 mg/L after 18, 41, 65, 89 h, 41.5 h",0.339
same,OD(600 nm),"Clostridium ljungdahlii; culture C, initial 200 mg/L L-cysteine-hydrochloride, refed 200 mg/L after 18, 41, 65, 89 h, 46.75 h",0.335
same,OD(600 nm),"Clostridium ljungdahlii; culture C, initial 200 mg/L L-cysteine-hydrochloride, refed 200 mg/L after 18, 41, 65, 89 h, 65.5 h",0.399
same,OD(600 nm),"Clostridium ljungdahlii; culture C, initial 200 mg/L L-cysteine-hydrochloride, refed 200 mg/L after 18, 41, 65, 89 h, 69.5 h",0.392
same,OD(600 nm),"Clostridium ljungdahlii; culture C, initial 200 mg/L L-cysteine-hydrochloride, refed 200 mg/L after 18, 41, 65, 89 h, 89.75 h",0.431
same,OD(600 nm),"Clostridium ljungdahlii; culture C, initial 200 mg/L L-cysteine-hydrochloride, refed 200 mg/L after 18, 41, 65, 89 h, 95.5 h",0.434
same,OD(600 nm),"Clostridium ljungdahlii; culture C, initial 200 mg/L L-cysteine-hydrochloride, refed 200 mg/L after 18, 41, 65, 89 h, 163.5 h",0.481
CC(=O)[S-].[K+] [potassium thioacetate],CO2 turnover,[1]; [4],70%
same,OD(600 nm),[1]; [4],9.0
same,steady state concentration acetate,[1]; [4],~0.90 g/L
same,steady state concentration butyrate,[1]; [4],~0.91 g/L
same,steady state concentration ethanol,[1]; [4],about 3.27 g/L
same,steady state concentration hexanoate,[1]; [4],~3.61 g/L
same,CO2 turnover,[1]; [5],50%
same,OD(600 nm),[1]; [5],7.60
same,ethanol concentration,[1]; [5],4.37 g/L
same,steady state concentration acetate,[1]; [5],0.50 g/L
same,steady state concentration butyrate,[1]; [5],0.53 g/L
same,steady state concentration hexanoate,[1]; [5],2.41 g/L
same,steady state concentration acetate,[2]; [6],~1.10 g/L
same,steady state concentration butyrate,[2]; [6],~1.08 g/L
same,steady state concentration ethanol,[2]; [6],about 2.67 g/L
same,steady state concentration hexanoate,[2]; [6],~3.75 g/L
same,optical density (OD600nm),"[2]; 10.69 mg/L potassium thioacetate in media feed (before increase), stable coculture",~11.8
same,CO2 turnover,[2]; [7],70%
same,OD(600 nm),[2]; [7],11.80
same,steady state concentrations of the educts and products,[2]; [7],stayed on the same level
